We go through one molecule from US6570068B1, “Methods for maize transformation coupled with adventitious regeneration utilizing nodal section explants and mature zygotic embryos” (Mississippi State University, priority 1997, dated 2003).

Assay [1] has as its system nodal ridge explants. The assay is described as follows: Multiple shoot clump formation from nodal ridge explants of seedlings germinated with BA. In kind it is cell-based, corn. The settings on record: 2.0 mg/l BA in germination medium, 4 weeks on shoot initiation medium. As for the experimental part:
(§1) In this experiment, the standard germination medium contained 4.3 g/l MS basal salts, DM-Vitamins (1.0 mg/l thiamine-HCl, 0.5 mg/l pyridoxine-HCl, 0.5 mg/l nicotinic acid, 100 mg/l myo-inositol), 30 g/l sucrose, (pH 5.8), and 2.0 mg/l benzyladenine (BA). The standard shoot initiation medium contained 4.3 g/l MS basal salts, DM-vitamins (1.0 mg/l thiamine-HCl, 0.5 mg/l pyridoxine-HCl, 0.5 mg/l nicotinic acid, 100 mg/l myo-inositol), 30 g/l sucrose, 8.0 g/l Phytagar, 0.25 mg/l 4-CPA (para-chlorophenoxyacetic acid), 10 mg/l glycine, 150 mg/l asparagine, and 2.0 mg/l BA. The standard root initiation medium contained 4.3 g/l MS basal salts, DM-vitamins (1.0 mg/l thiamine-HCl, 0.5 mg/l pyridoxine-HCl, 0.5 mg/l nicotinic acid, 100 mg/l myo-inositol), 30 g/l sucrose, 8.0 g/l Phytagar, and ±0.5 mg/l IBA.
As a result, those explants were easier to excise. Explants spanning the seventh node (nodal ridge),with a top excision of 0.5-1.0 mm above the ridge were excised from 4, 7, 14 or 21 day-old seedlings and placed on the shoot initiation medium for 4 weeks. After 4 weeks, 45% of the explants from 7 day-old seedlings (+BA) produced multiple shoot clumps, whereas only 24% of 7 day-old seedlings (−BA) produced multiple shoot clumps. Approximately 3% of the 4 day-old seedlings (+BA) produced multiple shoots. […]

Assay [2] relates to corn seedlings. In words: Seedling growth in germination medium with BA. In kind it is in vivo. The following applies: for seedling height versus seedlings without BA: 2.0 mg/l BA in germination medium. The method, then:
as §1
As a result, those explants were easier to excise. Explants spanning the seventh node (nodal ridge),with a top excision of 0.5-1.0 mm above the ridge were excised from 4, 7, 14 or 21 day-old seedlings and placed on the shoot initiation medium for 4 weeks. After 4 weeks, 45% of the explants from 7 day-old seedlings (+BA) produced multiple shoot clumps, whereas only 24% of 7 day-old seedlings (−BA) produced multiple shoot clumps. Approximately 3% of the 4 day-old seedlings (+BA) produced multiple shoots. Most explants from older seedlings (14 or 21 days) produced only one elongated shoot or 1 shoot with multiple branches. Once placed on the standard root initiation medium, most shoots (85%) rooted and the plants produced were acclimatized and placed under greenhouse conditions where normal flowering and fruiting were observed. Only one out of 29 plants produced was abnormal (i.e., a dwarf with twisted leaves). The explants should remain on the shoot initiation medium for 4 weeks. It was discovered that if the explants are left on the shoot initiation medium for 8 weeks, floral structures appeared.

As for `c1ccc(CNc2ncnc3nc[nH]c23)cc1` [BA, benzyladenine], the “seedlings (explants) that produced multiple shoots” value in assay [1] (4 day-old seedlings) is on record as “Approximately 3%”. The “explants that produced multiple shoot clumps” value in assay [1] (explants from 7 day-old seedlings) is listed as 45%. Also, the entries for the “seedling height versus seedlings without BA” value in assay [2] (4 day-old seedlings) and in assay [2] (by 7 days) were “taller than those without BA” and “no appreciable differences in height”, respectively. Further, the “roots at the nodal ridge” value in assay [2] (seedlings grown with BA) was “less roots at the nodal ridge”.
